Broadly, the IC50 is the point on the concentration scale where inhibition reaches its midpoint. The term IC90 denotes the concentration at which the effect reaches the 90% level. Low values mean an effect from little substance, high ones a need for much substance. What is called CC50 is the concentration at which the toxic effect on the cells reaches its halfway point. Read a low CC50 as greater toxicity to the cells.

The test relates to M. tuberculosis H37Rv growth inhibition. The experiment in a line: M. tuberculosis H37Rv growth inhibitors, H37Rv strain (AID 1626). Particulars: for IC90: measured here: IC90 against H37Rv; for CC50: measured here: Vero cell cytotoxicity.

In the case of `COc1cccc(-c2cc(C(=O)Nc3nc4ccccc4s3)c3ccccc3n2)c1`, the half-maximal inhibitory concentration (IC50) is 8.12 µM, the IC90 is above 100 µM and the 50% cytotoxic concentration (CC50) is above 40 µM.

For `CCOC(=O)CNc1ccc(C(=O)OCC)cc1[N+](=O)[O-]`, the IC50 is 3.23 µM and the concentration for an effect of 90% (IC90) is above 100 µM.

Regarding `Nc1ccc(Oc2ccc(Br)cc2)cc1`, the IC50 is 30.8 µM and the IC90 is above 100 µM.

Consider `Cn1c(NC(=O)c2ccccc2NC(=O)C(C)(C)C)nc2ccccc21`, for which the CC50 is above 40 µM.

Consider `CC1(C)CC(NC(=O)c2sc3cc(Cl)ccc3c2Cl)CC(C)(C)N1`, for which the IC90 is above 100 µM and the CC50 turned out to be 12.6 µM.

For the compound `CCN1CCN(Cc2ccc(NC(=O)c3ccc(C)c(NC(=O)c4c[nH]c5cc(C(F)(F)F)ccc5c4=O)c3)cc2C(F)(F)F)CC1`, the half-maximal inhibitory concentration (IC50) was 3.86 µM, the IC90 is 4.72 µM and the 50% cytotoxic concentration (CC50) was determined as 3.28 µM.

Turning to `O=[N+]([O-])c1ccc(COc2ccc(-c3[nH]ncc3-c3ccc(Cl)cc3)c(O)c2)cc1`, the IC50 was 23 µM, the IC90 was above 100 µM and the 50% cytotoxic concentration (CC50) is above 40 µM.

Turning to `Cc1ccc(Cc2cnc(NC(=O)c3cccs3)s2)cc1`, the IC50 was 5.91 µM, the concentration for an effect of 90% (IC90) was found to be 6.69 µM and the CC50 was above 40 µM.

Turning to `O=C(COc1ccc(Cl)cc1)Nc1nnc(-c2ccc3c(c2)CCCC3)o1`, the IC50 is 54.3 µM, the IC90 was above 100 µM and the cytotoxic concentration (CC50) is above 40 µM.

Consider `COc1cccc(Nc2c3c(nc4c(-c5ccccc5)c(C)nn24)CCC3)c1`, for which the IC50 is 3.4 µM, the IC90 is 5.95 µM and the CC50 was above 40 µM.

Take `CCOc1ccc(N=Cc2c(O)n(C(C)(C)C)c(=O)[nH]c2=O)cc1`: the IC50 was below 0.195 µM and the IC90 is above 100 µM.

`CC(=O)n1cc(N(C(=O)CCl)c2ccc(C)cc2)c2ccccc21`: the IC50 is 4.64 µM, the concentration for an effect of 90% (IC90) amounted to 17.1 µM and the cytotoxic concentration (CC50) stood at 0.471 µM.

Consider `COc1ccc(-c2ccc([C@H]3[C@@H]4C=CCC[C@@]4(C)C(=O)N3Cc3ccccc3)c(F)c2)cc1OC`, for which the concentration for half-maximal inhibition (IC50) was 13 µM, the concentration for an effect of 90% (IC90) is above 100 µM and the cytotoxic concentration (CC50) was determined as 39.2 µM.

For `CCOc1ccc2nc(NC(=O)CSc3nc(-c4ccccc4)c(C#N)c(=O)[nH]3)sc2c1`, the concentration for an effect of 90% (IC90) is above 100 µM.

In the case of `N#C/C(=C\c1ccccn1)c1nc2ccccc2s1`, the half-inhibitory concentration (IC50) was 14.9 µM, the IC90 was above 100 µM and the 50% cytotoxic concentration (CC50) is above 40 µM.

For `c1coc(CNc2nc(N3CCCCC3)nc3ccccc23)c1`, the IC50 was 1.49 µM, the 90% effect concentration (IC90) worked out at 1.69 µM and the CC50 is above 40 µM.

Take `COc1cc(OC)c(-c2nn3c(C4CCCCC4)nnc3s2)cc1OC`: the half-maximal inhibitory concentration (IC50) was 2.2 µM and the concentration for an effect of 90% (IC90) was found to be 6.47 µM.

Take `CC(=O)n1cc(N(C(=O)CCl)c2ccc(Cl)cc2)c2ccccc21`: the IC50 was 8.88 µM, the concentration for an effect of 90% (IC90) was determined as 19.6 µM and the CC50 worked out at 0.662 µM.

`CCOc1ccc2nc(NC(=O)CSC3=NCCS3)sc2c1` displayed an IC90 above 100 µM.

`O=C(Nc1ccc(-c2nc3ccccc3c(=O)o2)cc1)c1ccco1`: the IC50 was below 0.195 µM and the 90% effect concentration (IC90) was above 100 µM.

Take `Cc1c(C(=O)Nc2nc3ccccc3[nH]2)oc2ccccc12`: the concentration for half-maximal inhibition (IC50) was 1.29 µM, the 90% effect concentration (IC90) came out at 4.5 µM and the CC50 is above 40 µM.

Turning to `CCOC(=O)COc1ccc2c(C#N)c3ccccn3c2c1`, the IC50 was 1.67 µM and the 90% effect concentration (IC90) turned out to be 8.66 µM.

As to `CCCCNC(=O)Nc1nnc(-c2ccc(Cl)cc2)o1`, the IC50 was 1.33 µM and the IC90 was 3.59 µM.

For `O=C(/C=C/c1ccc(Cl)cc1Cl)c1cccnc1`, the IC50 was 2.97 µM, the IC90 was found to be 3.35 µM and the half-maximal cytotoxic concentration (CC50) amounted to 30.6 µM.

`Cc1cc(C)cc(OCc2nnc(SCC(=O)OC(C)C)o2)c1` gave a concentration for an effect of 90% (IC90) above 100 µM.

In the case of `O=c1oc2ccc(Br)cc2cc1-c1nc2ccccc2o1`, the IC50 is 2 µM and the 90% effect concentration (IC90) is 3.83 µM.

On to `COC(=O)c1c(NC(=O)c2ccccc2)sc(C(=O)c2ccccc2)c1C`, for which the half-inhibitory concentration (IC50) is 9.53 µM, the IC90 was found to be 25.6 µM and the cytotoxic concentration (CC50) turned out to be 25.3 µM.

On to `Cc1ccc(NC2=C/C(=N\S(=O)(=O)c3cccs3)c3ccccc3C2=O)c(C)c1`, for which the IC50 was 3.89 µM, the IC90 is 5.64 µM and the half-maximal cytotoxic concentration (CC50) worked out at 3.74 µM.

Take `COc1ccc(N=C2NN=C(c3c(C)[nH]c4ccccc34)CS2)cc1`: the concentration for half-maximal inhibition (IC50) is 39 µM, the 90% effect concentration (IC90) is above 100 µM and the CC50 was determined as 29.6 µM.

For the compound `O=C(CSc1nc2cc(Cl)ccc2o1)NCCc1ccccc1`, the IC50 is below 0.391 µM and the IC90 was found to be 1.09 µM.

Take `CCN(CC)CCCNc1nc2cc(OC)c(OC)cc2c2nc(-c3ccccc3)nn12`: the 50% inhibitory concentration (IC50) was 9.3 µM, the IC90 turned out to be 13.8 µM and the half-maximal cytotoxic concentration (CC50) is above 40 µM.

Regarding `Cc1cc(NCCCn2ccnc2)n2nc(C)c(-c3ccc(Cl)cc3)c2n1`, the 50% inhibitory concentration (IC50) is 4.03 µM, the IC90 was 5.75 µM and the CC50 amounted to 12.9 µM.

For `Fc1ccc(C(c2ccc(F)cc2)N2CCN(C/C=C/c3ccccc3)CC2)cc1`, the IC50 is 7.94 µM, the concentration for an effect of 90% (IC90) stood at 10.1 µM and the 50% cytotoxic concentration (CC50) is above 40 µM.

For the compound `CCOC(=O)c1ccc(N2CSC3=C(C#N)C(c4cccs4)CC(=O)N3C2)cc1` (stereo not drawn), the IC50 was 30.5 µM and the 90% effect concentration (IC90) is above 100 µM.

Consider `COc1cccc2sc(Nc3nc(-c4ccccn4)cs3)nc12`, for which the IC50 is below 0.195 µM, the 90% effect concentration (IC90) is below 0.195 µM and the CC50 came out at 1.92 µM.

Regarding `c1ccc(OCc2nn3c(-c4n[nH]c5c4CCC5)nnc3s2)cc1`, the IC50 is 1.23 µM and the concentration for an effect of 90% (IC90) came to 6.8 µM.

As to `Cc1ccc(C(=O)CC(SCC(=O)O)c2ccc([N+](=O)[O-])cc2)cc1` (stereo not drawn), the IC50 is 7.91 µM, the concentration for an effect of 90% (IC90) was above 100 µM and the 50% cytotoxic concentration (CC50) was determined as 36.8 µM.

Turning to `Cc1sc2nc(CN(C(=O)NC3CCCCC3)C3CCCC3)[nH]c(=O)c2c1C`, the IC50 was 6.11 µM, the IC90 amounted to 26.3 µM and the CC50 was above 40 µM.

On to `O=C(C[n+]1cc(-c2ccc(Cl)cc2)n2c1CCC2)N1c2ccccc2Sc2ccccc21`, for which the IC50 was 12.1 µM and the IC90 stood at 13.7 µM.

For `CC(C)(C)C(=O)COC(=O)c1cc2ccccc2cc1O`, the IC50 was 2.73 µM and the IC90 came out at 16.5 µM.

Regarding `O=C(Nc1ccc(Oc2ccccc2)cc1)C1CC1`, the IC50 was 14 µM, the concentration for an effect of 90% (IC90) was above 100 µM and the CC50 is above 40 µM.

With `COc1ccc(CNc2ncnc3cc(Cl)ccc23)cc1`, the concentration for half-maximal inhibition (IC50) is 58.5 µM and the 90% effect concentration (IC90) was above 100 µM.

As to `CC1CCN(c2nc(CN3CCCCC3)nc3scc(-c4ccccc4)c23)CC1`, the half-inhibitory concentration (IC50) is 9.11 µM, the concentration for an effect of 90% (IC90) stood at 11.9 µM and the CC50 was 34.9 µM.

For `Cc1ccc(NCCC(=O)c2cccs2)cc1`, the half-maximal inhibitory concentration (IC50) was 24.8 µM and the IC90 came to 32.7 µM.

Take `O=C(Nc1ccc(-c2csc(Nc3cccc(C(F)(F)F)c3)n2)cc1)c1cccc(C(F)(F)F)c1`: the IC50 is 0.954 µM, the IC90 was found to be 1.53 µM and the cytotoxic concentration (CC50) was 17.6 µM.

Turning to `CN1Cc2c(N3CCOCC3)nc3sc(C(=O)c4ccc(Br)cc4)c(N)c3c2CC1(C)C`, the IC50 is 5.56 µM, the IC90 was determined as 6.26 µM and the 50% cytotoxic concentration (CC50) turned out to be 10.2 µM.

With `NC1CCN(c2nc3c(cc2F)c(=O)c(C(=O)O)cn3-c2ccc(F)cc2F)C1` (stereo not drawn), the IC50 is 1.29 µM and the IC90 stood at 4.21 µM.

For the compound `Cc1c(Cl)c([N+](=O)[O-])nn1CCCC(=O)Nc1cc(Oc2ccccc2)cc([N+](=O)[O-])c1`, the half-inhibitory concentration (IC50) is 6.86 µM, the concentration for an effect of 90% (IC90) is 10.5 µM and the cytotoxic concentration (CC50) stood at 28.7 µM.

Consider `Cc1ccc(OCCCc2c(C)n[nH]c2C)cc1`, for which the concentration for half-maximal inhibition (IC50) is 16.8 µM and the IC90 is above 100 µM.

In the case of `CN(C)CCCNc1cc(C(C)(C)C)nc2c(-c3ccccc3)cnn12`, the half-inhibitory concentration (IC50) is 3.17 µM, the IC90 was 4.9 µM and the CC50 is 9.79 µM.

On to `CCC(=O)Nc1nc(-c2cc([N+](=O)[O-])cs2)cs1`, for which the IC50 is below 0.195 µM and the IC90 is above 100 µM.

On to `O=C(/C=C/c1cccc([N+](=O)[O-])c1)NC1CC2CCC1C2` (stereo not drawn), for which the IC50 is 6.04 µM and the IC90 is above 100 µM.

For the compound `CCCCc1ccc(NC(=O)CC(C)C)cc1`, the IC50 was 6.02 µM and the IC90 is above 100 µM.

Turning to `CCOc1ccc(NC(=O)N(C2CCCCCC2)C2CCN(C(C)=O)CC2)cc1`, the concentration for an effect of 90% (IC90) was above 100 µM.

`Cc1nc2ncccn2c1-c1csc(Nc2ccc(N(C)C)cc2)n1`: the IC50 was 12.8 µM, the IC90 was determined as 16 µM and the cytotoxic concentration (CC50) turned out to be 3.47 µM.

For the compound `CCc1c(O)nc(SCC(=O)Nc2ccc3c(c2)CCC3)[nH]c1=O`, the concentration for half-maximal inhibition (IC50) was 57.4 µM and the IC90 was above 100 µM.

Regarding `Cc1ccc(OC(=O)c2ccc(Br)o2)cc1`, the concentration for half-maximal inhibition (IC50) is 65.4 µM and the concentration for an effect of 90% (IC90) was above 100 µM.

`O=C(N[C@H](CO)[C@H](O)c1ccc([N+](=O)[O-])cc1)C(Cl)Cl`: the IC50 is 4.82 µM, the IC90 is 7.7 µM and the half-maximal cytotoxic concentration (CC50) is above 40 µM.

Take `COc1ccc(C(C)(C)C)cc1NC(=O)COC(=O)c1cc(SC)ccc1Cl`: the IC50 was 54.6 µM and the IC90 was above 100 µM.

As to `CCn1nnc(NC(=O)c2ccc(-c3ccc(Cl)cc3)o2)n1`, the half-maximal inhibitory concentration (IC50) was 19.8 µM and the 90% effect concentration (IC90) was above 100 µM.

In turn, `CCc1ccccc1NC(=O)c1ccc([N+](=O)[O-])s1` displayed an IC90 above 100 µM and a 50% cytotoxic concentration (CC50) above 40 µM.

As to `Cc1ccc(Oc2nc(CN3CCOCC3)nc3sc4c(c23)CCC(C)C4)cc1` (stereo not drawn), the IC50 was 17.1 µM, the IC90 came out at 22.4 µM and the CC50 is above 40 µM.

As for `CC(=O)c1sc(NC(=O)c2cc(-c3ccccc3)nn2-c2ccccc2)nc1C`, the half-maximal inhibitory concentration (IC50) was 27.7 µM, the IC90 was above 100 µM and the CC50 is above 40 µM.

For the compound `CCCC(=O)OCCNc1cc(Sc2nccn2C)c2nonc2c1[N+](=O)[O-]`, the IC50 was 17.9 µM, the IC90 is 31.6 µM and the 50% cytotoxic concentration (CC50) amounted to 19.2 µM.

As to `Cc1cccc(N=Nc2c(N)n[nH]c2-c2ccc(Cl)cc2)c1`, the IC50 is 59.1 µM and the IC90 is above 100 µM.
